The text below walks through data of patent US11077120B2, “Prostaglandin receptor EP2 antagonists, derivatives, compositions, and uses related thereto” (Emory University, priority 2014, dated 2021).

The target in the first experiment is T1, human EP2 receptors (Homo sapiens, UniProt P43116).
T1 construct: expressed in transfected cells
T1 sequence (P43116 whole entry): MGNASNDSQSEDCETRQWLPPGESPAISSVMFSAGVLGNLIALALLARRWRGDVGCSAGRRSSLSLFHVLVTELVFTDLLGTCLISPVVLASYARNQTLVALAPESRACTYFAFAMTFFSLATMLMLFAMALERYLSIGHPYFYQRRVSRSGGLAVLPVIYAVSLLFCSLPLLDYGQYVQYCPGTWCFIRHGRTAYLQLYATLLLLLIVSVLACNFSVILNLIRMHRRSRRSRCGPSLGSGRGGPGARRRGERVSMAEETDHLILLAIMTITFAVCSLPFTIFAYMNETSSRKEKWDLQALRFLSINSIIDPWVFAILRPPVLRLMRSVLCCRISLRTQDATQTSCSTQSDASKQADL
As to the kind of experiment: cell-based cAMP TR-FRET assay, rightward shift of PGE2 concentration response curve (Schild KB), EP2. Conditions: Table 1; Schild KB from single antagonist concentration 1 μM; average of 2-3 measurements in duplicate; read-out: EP2 KB. As to the method: KB value indicates the antagonist concentration required for a twofold rightward shift in the PGE2 dose-response curve. Thus, a lower KB value indicates a higher inhibitory potency.
The synthesis was carried out starting from commercially available 2-methyl indole or 2-trifluoromethyl indoles (11a-c), which on treatment with bromoacetonitrile provided intermediates (12a-c), which then were subjected to lithium aluminum hydride to reduce cyanide to amines. […] Synthesized derivatives were tested by using a cAMP-derived TR-FRET assay, at single concentration (1 μM) to observe a rightward shift of PGE2 (an EP2 agonist) concentration response curve in a C6G cell line that overexpresses human EP2 receptors.
A lower KB value indicates a higher inhibitory potency.
Intracellular cAMP was measured with a cell-based homogeneous time-resolved fluorescence resonance energy transfer (TR-FRET) method (Cisbio Bioassays). […] Endogenous cAMP produced by cells competes with labeled cAMP for binding to the cAMP antibody and thus reduces the FRET signal. Cells stably expressing human DP1, EP2, EP4, or IP receptors were seeded into 384-well plates in 30 μl complete medium (4,000 cells/well) and grown overnight. The medium was carefully withdrawn and 10 μl Hanks' Buffered Salt Solution (HBSS) (Hyclone) containing 20 μM rolipram was added into the wells to block phosphodiesterases. The cells were incubated at room temperature for 0.5-1 h and then treated with vehicle or test compound for 10 min before addition of increasing concentrations of appropriate agonist: BW245C for DP1, PGE2 for EP2 and EP4, or iloprost for IP. The cells were incubated at room temperature for 40 min, then lysed in 10 μl lysis buffer containing the FRET acceptor cAMP-d2 and 1 min later another 10 μl lysis buffer with anti-cAMP-Cryptate was added. After 60-90 min incubation at room temperature, the FRET signal was measured by an Envision 2103 Multilabel Plate Reader (PerkinElmer Life Sciences) with a laser excitation at 337 nm and dual emissions at 665 nm and 590 nm for d2 and Cryptate (50 s delay), respectively. The FRET signal was expressed as: F665/F590×10^4.
`Cc1cc2cc(F)ccc2n1CCNC(=O)c1ccc(N2CCN(C)CC2)c(F)c1` [Compound 8s]: the Kb came to 62.2 nM.
The same measure, in the same setting: then `CCN(CC)c1ccc(C(=O)NCCn2c(C)cc3ccccc32)cc1F` [Compound 7d], with 4.6 nM.
Take `CCN(CC)c1ccc(C(=O)NCCn2c(C)cc3ccccc32)cc1C(F)(F)F` [Compound 7e]: the Kb was found to be 310 nM.
Still for that read-out and setting: then `Cc1cc2ccccc2n1CCNC(=O)c1ccc2[nH]c(=S)[nH]c(=O)c2c1` [Compound 8f], with 84.1 nM; and `Cc1cc2ccccc2n1CCNC(=O)C1CCC(c2ncccn2)CC1` (stereo not drawn) [Compound 8q], with 380 nM; and `Cc1cc2ccccc2n1CCNC(=O)c1ccc(S(N)(=O)=O)cc1` [Compound 6v], with 486 nM.
Turning to `Cc1cc2ccccc2n1CCNC(=O)c1ccc(CN)cc1` [Compound 6y], the Kb worked out at 690 nM.
For `Cc1[nH]c2ccccc2c1CCNC(=O)c1ccc(N2CCCCC2)cc1` [Compound 9b], the Kb was 19.8 nM.
With `CC(=O)Nc1ccc(C(=O)NCCn2c(C)cc3ccccc32)cc1` [Compound 6n], the Kb came out at 97 nM.
Still for that read-out and setting: then `Cc1cc2ccccc2n1CCNC(=O)c1ccc(N2CCCN(C)CC2)cc1` [Compound 7v], with 148 nM.
For `COc1ccc(C(=O)NCCn2c(C)cc3ccccc32)cc1F` [Compound 7c], the Kb is 86.8 nM.
Same read-out and setting: for `CCN(CC)C(=O)c1ccc(C(=O)NCCc2c(C)[nH]c3ccccc23)cc1` [Compound 8y] the value was above 1000 nM.
Turning to `CC(=O)N1CCN(c2ccc(C(=O)NCCn3c(C)cc4ccccc43)cc2)CC1` [Compound 8d], the Kb stood at 50.2 nM.
On to `Cc1cc2ccccc2n1CCNC(=O)c1ccc(C#N)c(F)c1` [Compound 7h], for which the Kb was found to be 140 nM.
Still for that read-out and setting: for `CCN(CC)C(=O)c1ccc(C(=O)NCCn2c(C)cc3ccccc32)cc1` [Compound 6r] the value was 800 nM; for `CCCCN(CCCC)c1ccc(C(=O)NCCn2c(C)cc3ccccc32)cc1` [Compound 6h], 68.8 nM; for `Cc1cc2ccccc2n1CCNC(=O)c1ccc(N(C)C)c(F)c1` [Compound 7a], 18.1 nM.
Take `CCNc1ncc(C(=O)NCCc2c(C)[nH]c3ccccc23)cn1` [Compound 9f]: the Kb came to 155 nM.
Take `Cc1[nH]c2ccccc2c1CCNC(=O)c1ccc(N2CCN(C)CC2)cc1` [Compound 9e]: the Kb is 135 nM.
For `Cc1cc2ccccc2n1CCNC(=O)c1ccc(N2CCC(C)CC2)cc1` [Compound 7l], the Kb worked out at 30.3 nM.
The same measure, in the same setting: then `Cc1cc2ccccc2n1CCNC(=O)c1ccc(NC(=N)N)cc1` [Compound 6k], with above 1000 nM; and `Cc1cc2ccccc2n1CCNC(=O)c1ccc(N2CCNCC2)cc1` [Compound 8c], with 410 nM; and `Cc1cc2ccccc2n1CCNC(=O)c1ccc(-n2nn[nH]c2=S)cc1` [Compound 7y], with 32.2 nM.
For the molecule `CCNc1ccc(C(=O)NCCn2c(C)cc3ccccc32)cc1` [Compound 6d], the Kb amounted to 15.5 nM.
Same read-out and setting: for `Cc1cc2ccccc2n1CCNC(=O)c1ccc(N2CCN(C)CC2)cc1` [Compound 7q] the value was 64 nM.
For the molecule `Cc1cc2ccccc2n1CCNC(=O)c1ccc(C2CCCNC2)cc1` (stereo not drawn) [Compound 8h], the Kb was above 1000 nM.
For the molecule `Cc1cc2ccccc2n1CCNC(=O)c1ccc(C#N)cc1F` [Compound 7i], the Kb turned out to be 280 nM.
On the same count and under the same terms, for `Cc1cc2ccccc2n1CCNC(=O)c1ccc(OC2CCNCC2)cc1` [Compound 8i] the value was above 1000 nM.
Consider `O=C(NCCn1c(C(F)(F)F)cc2ccccc21)c1ccc(N2CCOCC2)cc1` [Compound 8u], for which the Kb turned out to be 120 nM.
Take `Cc1[nH]c2ccccc2c1CCNC(=O)c1cnc(N2CCOCC2)nc1` [Compound 9g]: the Kb turned out to be 280 nM.
Same read-out and setting: for `Cc1cc2ccccc2n1CCNC(=O)c1ccc(CCN)cc1` [Compound 6z] the value was 1220 nM; for `Cc1cc2ccccc2n1CCNC(=O)c1ccc(CNC(=O)OC(C)(C)C)cc1` [Compound 6x], 84 nM.
Turning to `COc1ccc(C(=O)NCCn2c(C)cc3ccccc32)cc1` [Compound 6c], the Kb was determined as 75.6 nM.
As to `Cc1cc2ccccc2n1CCNC(=O)c1ccc(NC(=O)c2ccccc2F)cc1` [Compound 6o], the Kb was 51 nM.
In the case of `CCN(CC)c1ccc(C(=O)NCCn2c(C)cc3ccccc32)cc1OC` [Compound 7g], the Kb is 61.2 nM.
For `Cc1cc2ccccc2n1CCNC(=O)c1nc2cc(F)ccc2[nH]1` [Compound 9h], the Kb was 130 nM.
For the molecule `Cc1cc2ccccc2n1CCNC(=O)c1ccc2[nH]nnc2c1` [Compound 8e], the Kb was found to be 87.5 nM.
As to `Cc1cc2ccccc2n1CCNC(=O)c1cccc(N2CCN(C)CC2)c1` [Compound 7r], the Kb was 770 nM.
Take `Cc1cc2ccccc2n1CCNC(=O)c1ccc(-n2cnnn2)cc1` [Compound 7x]: the Kb worked out at 42.2 nM.
With `Cc1cc2cc(F)ccc2n1CCNC(=O)c1ccc(N2CCOCC2)cc1` [Compound 8r], the Kb was 14.9 nM.
Take `Cc1cc2ccccc2n1CCNC(=O)c1ccc(O)cc1` [Compound 6j]: the Kb is above 1000 nM.
`Cc1[nH]c2ccccc2c1CCNC(=O)c1ccc(N2CCOCC2)c(F)c1` [Compound 9d]: the Kb stood at 66 nM.
`CCOC(=O)C1CCN(c2ccc(C(=O)NCCn3c(C)cc4ccccc43)cc2)CC1` [Compound 7m]: the Kb came out at 500 nM.
Take `CC(=O)Nc1ccc(C(=O)NCCn2c(C)cc3ccccc32)cc1F` [Compound 7b]: the Kb worked out at 530 nM.
Same read-out and setting: then `Cc1cc2ccccc2n1CCNC(=O)c1cnc(N)nc1` [Compound 8l], with above 1000 nM; and `CCNc1ccc(C(=O)NCCn2c(C)cc3ccccc32)cc1C(F)(F)F` [Compound 7f], with 20.2 nM; and `Cc1cc2ccccc2n1CCNC(=O)c1cccnc1N` [Compound 8p], with 520 nM.
The same measure, in the same setting: for `Cc1cc2ccccc2n1CCNC(=O)c1ccc(CN2CCN(C)CC2)cc1` [Compound 8k] the value was above 1000 nM; for `CCN(CC)c1ccc(C(=O)NCCn2c(C)nc3ccccc32)cc1` [Compound 8v], 190 nM; for `Cc1cc2ccccc2n1CCNC(=O)c1ccc(C(=O)OC(C)(C)C)cc1` [Compound 6t], 100 nM.
In the case of `CCN(CC)c1ccc(C(=O)NCCn2cnc3ccccc32)cc1` [Compound 8w], the Kb was above 1000 nM.
In the case of `CC(=O)Oc1ccc(C(=O)NCCn2c(C)cc3ccccc32)cc1` [Compound 6m], the Kb is 150 nM.
For `Cc1cc2ccccc2n1CCNC(=O)c1ccc(C2CCCN(C(=O)OC(C)(C)C)C2)cc1` (stereo not drawn) [Compound 8g], the Kb was found to be 95 nM.
Take `CCN(CC)c1ccc(C(=O)NCCn2c(C(F)(F)F)cc3ccccc32)cc1` [Compound 8t]: the Kb is 150 nM.
For `Cc1cc2ccccc2n1CCNC(=O)c1cccc(N2CCOCC2)c1` [Compound 7s], the Kb was above 1000 nM.
For `Cc1cc2ccccc2n1CCNC(=O)c1ccc(C(=O)N(C)C)cc1` [Compound 6q], the Kb is above 1000 nM.
As for `Cc1cc2ccccc2n1CCNC(=O)c1ccc(C2CCCCC2)cc1` [Compound 8b], the Kb amounted to 120 nM.
`Cc1cc2ccccc2n1CCNC(=O)c1ccc(CN2CCOCC2)cc1` [Compound 8j]: the Kb was 970 nM.

Still in this experiment, the particulars now being: Table 3; Schild KB from single concentration 1 μM; read-out: EP2 KB.
In the case of `COc1cc(/C=C/C(=O)N2CCC(c3c(C)[nH]c4ccccc34)C2)cc(OC)c1OC` (stereo not drawn) [Compound 16o], the Kb is above 1000 nM.
For `COc1cc(/C=C/C(=O)N2CCCC(c3c(C)[nH]c4ccccc34)C2)cc(OC)c1OC` (stereo not drawn) [Compound 16n], the Kb is above 1000 nM.

Still in this experiment, the particulars now being: Table 6.
As for `Cc1cc2ccccc2n1CCNC(=O)c1ccc(OCCN(C)C)c(OCCN(C)C)c1` [TG8-76-2], the “EP2 KB” value is listed as “Inactive”.
Consider `Cc1nc2ccccc2c(C(=O)NCCn2c(C)cc3ccccc32)c1O` [TG7-276], for which the “EP2 KB” value was “Inactive”.

The same experiment, now with this note: Table 6; read-out: EP2 KB.
In the case of `O=C(NCCn1c(C(F)(F)F)cc2ccccc21)c1cc(-c2ccc(F)cc2)n[nH]1` [TG7-266], the Kb is 8800 nM.
In the case of `Cc1ccc2c(O)c(C(=O)NCCn3c(C)cc4ccccc43)cnc2n1` [TG7-275], the Kb worked out at 1810 nM.
With `Cc1cc(C(=O)NCCn2c(C)cc3ccccc32)n(Cc2ccccc2)n1` [TG7-274], the Kb was 1330 nM.
`Cc1cc2ccccc2n1CCNC(=O)c1ccc(N2CCC(C(=O)N(C)C)CC2)cc1` [TG8-64]: the Kb was 190 nM.
Regarding `Cc1cc2ccccc2n1CCNC(=O)c1cc(CC(C)C)no1` [TG7-277], the Kb stood at 172 nM.
`COc1cc(C(=O)NCCn2c(C)cc3ccccc32)ccc1OCCN(C)C` [TG8-75]: the Kb was determined as 1000 nM.

Still in this experiment, the particulars now being: read-out: EP2 KB.
With `Cc1cc2ccccc2n1CCNC(=O)c1cccc(S(N)(=O)=O)c1` [Compound 6w], the Kb is above 1000 nM.
